From publication PMC9401491, “The Novel Nucleoside Analogue ProTide NUC-7738 Overcomes Cancer Resistance Mechanisms In Vitro and in a First-In-Human Phase I Clinical Trial” (Clinical Cancer Research, 2021)
Where two headings read alike, the source gives them in different places.

Legend:
renal cancer cell lines = test: siRNA HINT1 knockdown in renal cancer cell lines; type: cell-based
Experimental: Cells were transfected with stealth siRNA (catalog no. HSS104782, catalog no. HSS104784, catalog no. HSS179235; ThermoFisher) targeting HINT-1 using Lipofectamine RNAiMAX (Invitrogen) following the manufacturer's protocol. At 48 hours posttransfection, cells were treated and cell viability was measured 96 hours posttransfection as described above. Samples for Western blot analysis were harvested 48 hours posttransfection. For gene-depletion experiments, approximately 4 × 10^5 HAP1 cells were seeded per well in a 6-well plate and grown to approximately 50% confluency. After 24 hours, cells were transfected with lentiCRISPR v2 plasmid (GenScript) containing a guide RNA (gRNA) targeting gene of interest using Turbofectin (catalog no. TF81001, OriGene) according to manufacturer's instruction. The following sequences were used: HINT-1 CRISPR gRNA 2 ([…]) and NUDT2 CRISPR gRNA 2 ([…]). At 24 hours posttransfection, positively transfected cells were selected using […] puromycin for 72 hours. After selection, surviving colonies were expanded and used for downstream analysis. For clonal selection, clones were selected using limited dilution and expanded into a 6-well plate for Western blot screening.

NCI-786 = test: MTT cell viability, NCI-786; type: cell-based; conditions: 48 h
Experimental: (§1) Cells (10^4) were seeded into 96-well plates and then treated with NUC-7738 (lot 5132/E00393/119) or 3′-dA (cordycepin, catalog no. C3394, lot 067M4182, Sigma) for 48 hours. One and a half milligrams per milliliter MTT (catalog no. M6494, Invitrogen) in a 1:1 ratio was added to cell culture media. After a 2-hour incubation at 37°C, media was removed and 70 μl of isopropanol was added. Optical densities at 570 nm were measured using POLARstar Omega plate reader. Readouts were normalized and IC50 values were calculated using a nonlinear regression model in Graphpad prism (v8.3.0). Each biological replicate (at least 3) was performed in 4 technical replicates to calculate the average IC50 value. To measure apoptosis, the Guava NexinReagent (Luminex Corp.) was used following manufacturer's instructions. Fluorescence staining was measured with an automated 96-well Guava easyCyte Flow Cytometer (Luminex Corp.).

[1] = NuTide:701 first-in-human phase I study; type: in vivo
Experimental: A Safety Study of NUC-7738 in Patients with Advanced Solid Tumours or Lymphoma, ClinicalTrials number: NCT03829254. Approved by Oxford C Ethics Committee ref 18/SC/0628.
This study is currently ongoing at three centers in the United Kingdom: Edinburgh, Newcastle, and Oxford. As of June 1, 2021, 28 patients with advanced cancers have been enrolled and received escalating doses of 14–900 mg/m^2 (intravenous infusion from 30–120 minutes) once weekly until dose-limiting toxicity or disease progression occurs. Intrapatient dose escalation ensures those starting at lower dose levels of NUC-7738 are continuously moved to higher doses once safety has been established. The most common cancers to be included are immunotherapy-resistant melanoma (n = 8), colorectal cancer (n = 3), and gastric and lung cancer (n = 2 each). […] A posttreatment biopsy was taken from a patient with melanoma and compared with their archived specimen collected prior to enrolling in the clinical trial. […] Transcriptional profiling of the specimens using RNA-seq identified more than 1,069 genes which were at least 2-fold differentially expressed after treatment with NUC-7738 (Fig. 6C and Supplementary Fig. S6A–C).

AGS = test: MTT cell viability, AGS; type: cell-based; conditions: Homo sapiens, 48 h
Experimental: as §1

cancer cell lines = test: IC50 across a wide set of cancer cell lines; type: cell-based
Experimental: as §1

[2] = set-up: method as in earlier work; conditions: patients, particularly immunotherapy-resistant melanoma; cited from earlier work
HAP1 cells [3] = test: MTT cell viability, HAP1 cells; type: cell-based; conditions: Homo sapiens
Experimental: as §1

Tera-1 = test: MTT cell viability, Tera-1; type: cell-based
Experimental: as §1

786-O = test: IC50 in renal cancer cell line 786-O; type: cell-based; conditions: Homo sapiens, 786-0
CAKI-1 = test: MTT cell viability, CAKI-1; type: cell-based; conditions: Homo sapiens, CAKI-1, 48 h
Experimental: as §1

[4] = Beagle dog 4-week toxicology and toxicokinetics
HAP1 cells [5] = test: HAP1 viability with ADA, hENT1 or ADK inhibitors; type: cell-based, human; conditions: HAP1, EHNA, NBTI, A134974
Experimental: as §1
To assess whether NUC-7738 was resistant to ADA and could bypass ADK and hENT1 (SLC29A1), cell viability was measured after treatment with their specific and corresponding protein inhibitors: erythro-9-(2-Hydroxy-3-nonyl) adenine hydrochloride (EHNA), A134974, and S-(4-nitrobenzyl)-6-thioinosine (NBTI), respectively ([16, 17, 34, 35]).

A498 = test: MTT cell viability, A498; type: cell-based; conditions: Homo sapiens, A498, 48 h
Experimental: as §1

UO-31 = test: MTT cell viability, UO-31; type: cell-based; conditions: Homo sapiens, UO-31, 48 h
Experimental: as §1

SMILES: C[C@H](NP(=O)(OC[C@@H]1C[C@@H](O)[C@H](n2cnc3c(N)ncnc32)O1)Oc1ccccc1)C(=O)OCc1ccccc1 (stereo partly drawn) [NUC-7738, 3′-deoxyadenosine-5′-O-phenyl-(benzyloxy-L-alaninyl)-phosphate]
- sensitivity after HINT1 depletion to minimal residual levels (renal cancer cell lines): no difference in sensitivity
- IC50 (NCI-786): 49.5 µM
- tolerability ([1]; patients with advanced cancers, 14–900 mg/m^2 iv once weekly): well tolerated with no dose-limiting toxicities reported
- plasma PK profile ([1]; patients, escalating doses): dose-proportional increase in Cmax and AUC
- IC50 (AGS): 11.2 µM
- IC50 (cancer cell lines; read-out: IC50 in the low μM range): < 10 µM
- IC50 (cancer cell lines; read-out: mean IC50): 18.8 µM
- antitumor activity [2]: Encouraging signals of antitumor activity and prolonged disease stabilization
- IC50 (HAP1 cells [3]; HAP1, 48 h): 7.32 µM
- IC90 (HAP1 cells [3]; HAP1, 48 h): 54.2 µM
- IC50 (HAP1 cells [3]; HAP1, read-out: IC50 concentration used for RNA-seq): 7.6 µM
- IC90 (HAP1 cells [3]; HAP1, read-out: IC90 concentration used for RNA-seq): 125 µM
- IC50 (Tera-1; 48 h): 4.36 µM
- sensitivity to NUC-7738 compared with 3′-dA (Tera-1; Tera-1 teratocarcinoma): more than 40 fold
- IC50 (786-O): 13 µM
- IC50 (CAKI-1): 33 µM
- mean AUC(0-t) ([4]; 10 mg/kg/day, sex mean at day 26): 638 ng/h/mL
- toxicology findings ([4]; 20 mg/kg/day, iv slow injection, 4 cycles): induced changes in the liver and bone marrow
- systemic exposure (mean Cmax and AUC 0-t), single vs repeated administrations ([4]; all doses, significance >2-fold change): No significant differences
- Tmax ([4]; both, beagle, plasma, iv): 15 min
- clearance ([4]; both, beagle, plasma, iv): 245 to 533 mL/min/kg
- half-life ([4]; both, beagle, plasma, iv): 13.2 to 27.6 min
- Cmax ([4]; both, beagle, plasma, iv, 10 mg/kg/day): 1560 ng/mL
- highest nonseverely toxic dose (HNSTD) ([4]; iv, 4 cycles (4 weeks)): 10 mg/kg/day
- potency upon inhibition of ADA, hENT1 or ADK (HAP1 cells [5]): mostly unaffected
- IC50 (A498): 48.5 µM
- IC50 (UO-31): 42.2 µM
